What all share (assay): ≥ marks a high value that may be exact or a test limit, other limits are often not marked, values filed in µg/mL are converted to µM
Assay [1] relates to Acinetobacter baumannii Josh 230.
For assay [2], the system named is Acinetobacter baumannii Josh 28.
Assay [3] relates to Enterobacter asburiae St. L P23.
Assay [4] concerns Enterobacter cloacae BB2012-181.
The subject of assay [5] is Enterobacter cloacae BB2013-32.
Assay [6] relates to Enterobacter cloacae St. L P23.
In assay [7] the test system is Escherichia coli ARLG-1012.
The test system of assay [8] is Escherichia coli BB2013-30.
Assay [9] has as its system Escherichia coli BW25113.
Assay [10] deals with Escherichia coli JW55034.
Assay [11] concerns Klebsiella aerogenes St. L P63.
Assay [12] deals with Klebsiella pneumoniae BB2009-209.
Assay [13] deals with Klebsiella pneumoniae J3702.
Assay [14] has as its system Klebsiella pneumoniae Oschner KP-1.
The test system of assay [15] is Pseudomonas aeruginosa ATCC 27853.
Assay [16] has as its system Pseudomonas aeruginosa BB2013-100.
Assay [17] deals with Pseudomonas aeruginosa J4228.
Assay [18] relates to Bacillus subtilis 168 HT.
For assay [19], the system named is Escherichia coli MG1655.
The test system of assay [20] is Acinetobacter baumannii CCARM 12035.
Assay [21] relates to Acinetobacter baumannii KCTC 2508.
The test system of assay [22] is Bacillus subtilis KCTC 3068.
In assay [23] the test system is Escherichia coli CCARM 1229.
The subject of assay [24] is Escherichia coli KCTC 1682.
Assay [25] has as its system Pseudomonas aeruginosa CCARM 2002.
Assay [26] deals with Pseudomonas aeruginosa KCTC 2004.
Assay [27] deals with Salmonella typhimurium CCARM 8007.
For assay [28], the system named is Salmonella typhimurium KCTC 1926.
The test system of assay [29] is Staphylococcus aureus CCARM 3126.
Assay [30] concerns Staphylococcus aureus KCTC 1621.
For assay [31], the system named is Staphylococcus epidermidis KCTC 1917.
Assay [32] relates to Pseudomonas aeruginosa H1001.
For assay [33], the system named is Escherichia coli ATCC 25922.
Assay [34] concerns Listeria monocytogenes KCTC 19111.
The subject of assay [35] is Pseudomonas aeruginosa ATCC 15692.
The test system of assay [36] is Staphylococcus aureus ATCC 25923.

Converted amounts (≈) assume the structure as drawn.

For `CC[C@H](C)[C@H](NC(=O)[C@H](C)N)C(=O)N[C@@H](CCCCN)C(=O)N[C@H](C(=O)N[C@@H](CCCN=C(N)N)C(=O)N[C@@H](CCCCN)C(=O)N[C@@H](CC(C)C)C(=O)N[C@@H](Cc1ccccc1)C(=O)N[C@@H](CCCCN)C(=O)N[C@@H](CCCCN)C(=O)N[C@@H](CC(C)C)C(=O)N[C@@H](CC(C)C)C(=O)N[C@@H](CCCN=C(N)N)C(N)=O)[C@@H](C)CC` [AIKIRKLFKKLLR], the MIC in [1] worked out at 9.83 µM (≈ 16 µg/mL); in [2], 2.46 µM (≈ 4 µg/mL); in assay [3] it was 19.7 µM (≈ 32 µg/mL); in assay [4], 19.7 µM (≈ 32 µg/mL); in assay [5], 19.7 µM (≈ 32 µg/mL); in [6] it was 19.7 µM (≈ 32 µg/mL). The MIC in assay [7] stood at 4.92 µM (≈ 8 µg/mL); in assay [8] it was 9.83 µM (≈ 16 µg/mL); in [9], 4.92 µM (≈ 8 µg/mL); in assay [10], 4.92 µM (≈ 8 µg/mL); in assay [11], 19.7 µM (≈ 32 µg/mL); in [12] it was 19.7 µM (≈ 32 µg/mL). Also, the minimum inhibitory concentration (MIC) in [13] worked out at 19.7 µM (≈ 32 µg/mL); in assay [14] it was 19.7 µM (≈ 32 µg/mL); in assay [15], 2.46 µM (≈ 4 µg/mL); in assay [16], 19.7 µM (≈ 32 µg/mL); in assay [17], 4.92 µM (≈ 8 µg/mL).

With `CC[C@H](C)[C@H](NC(=O)[C@@H](N)CC(C)C)C(=O)N[C@H](C(=O)N[C@@H](CC(C)C)C(=O)N[C@H](C(=O)N[C@@H](CS)C(=O)N[C@@H](CCCN=C(N)N)C(=O)N[C@@H](CCCCN)C(=O)N[C@@H](CCCCN)C(=O)N[C@@H](CCCCN)C(=O)N[C@@H](CCCCN)C(=O)N1CCC[C@H]1C(=O)N[C@@H](Cc1ccccc1)C(=O)O)[C@@H](C)O)C(C)C` [LIVLTCRKKKKPF], the minimal inhibitory concentration (MIC) in [18] is ≥ 40.7 µM; in assay [19], ≥ 81 µM.

Consider `CC[C@H](C)[C@H](NC(=O)[C@H](CCCCN)NC(=O)[C@H](Cc1c[nH]c2ccccc12)NC(=O)[C@@H](N)CCCN=C(N)N)C(=O)N[C@@H](Cc1ccccc1)C(=O)N[C@@H](CCCCN)C(=O)N[C@@H](CCCCN)C(=O)N[C@@H](C)C(=O)N[C@@H](C)C(=O)N[C@@H](CCCCN)C(=O)N[C@@H](CCCCN)C(=O)NCC(N)=O` [RWKIFKKAAKKG], for which the minimum inhibitory concentration (MIC) in [20] is 16 µM (≈ 23.4 µg/mL); in assay [21] it was ≥ 32 µM; in assay [22], 16 µM (≈ 23.4 µg/mL); in assay [23] it was ≥ 32 µM; in assay [24] it was 8 µM (≈ 11.7 µg/mL); in assay [25], 16 µM (≈ 23.4 µg/mL). The MIC in assay [26] was 8 µM (≈ 11.7 µg/mL); in assay [27], 16 µM (≈ 23.4 µg/mL); in [28] it was 16 µM (≈ 23.4 µg/mL); in assay [29], 16 µM (≈ 23.4 µg/mL); in assay [30], 16 µM (≈ 23.4 µg/mL); in assay [31], ≥ 32 µM.

The molecule `CC(C)C[C@H](NC(=O)[C@H](Cc1ccc(O)cc1)NC(=O)[C@@H]1CCCN1C(=O)[C@@H]1CCCN1C(=O)[C@H](CCCCN)NC(=O)[C@H](CC(=O)O)NC(=O)[C@@H](N)C(C)C)C(=O)N1CCC[C@H]1C(=O)N[C@@H](CCCN=C(N)N)C(=O)N1CCC[C@H]1C(=O)N[C@@H](CCCN=C(N)N)C(=O)N1CCC[C@H]1C(=O)N1CCC[C@H]1C(=O)N[C@@H](CCCN=C(N)N)C(=O)N[C@@H](CCCN=C(N)N)C(=O)N[C@@H](CS)C(=O)N[C@@H](Cc1ccc(O)cc1)C(=O)N[C@@H](CC(N)=O)C(=O)N[C@@H](CCCN=C(N)N)C(=O)NCC(=O)O` [VDKPPYLPRPRPPRRCYNRG] came in with an MIC in assay [32] of 0.0328 µM (≈ 0.08 µg/mL).

In the case of `CC[C@H](C)[C@H](NC(=O)[C@H](Cc1cnc[nH]1)NC(=O)[C@H](CCCCN)NC(=O)[C@H](CCCCN)NC(=O)[C@H](CC(C)C)NC(=O)[C@H](CCCCN)NC(=O)[C@H](CCCCN)NC(=O)[C@H](CC(C)C)NC(=O)[C@H](Cc1ccccc1)NC(=O)[C@H](Cc1ccccc1)NC(=O)[C@H](CCCCN)NC(=O)[C@@H](NC(=O)CN)[C@@H](C)CC)C(N)=O` [GIKFFLKKLKKHI], the MIC in assay [1] was found to be 2.5 µM (≈ 4 µg/mL); in assay [2] it was 1.25 µM (≈ 2 µg/mL); in assay [3], 20 µM (≈ 32 µg/mL); in assay [4] it was 20 µM (≈ 32 µg/mL); in assay [5] it was 10 µM (≈ 16 µg/mL); in assay [6] it was 20 µM (≈ 32 µg/mL). In addition, the MIC in assay [7] stood at 5 µM (≈ 8 µg/mL); in [8], 10 µM (≈ 16 µg/mL); in [9], 5 µM (≈ 8 µg/mL); in assay [10], 5 µM (≈ 8 µg/mL); in assay [11], 10 µM (≈ 16 µg/mL); in assay [12], 20 µM (≈ 32 µg/mL). Also, the minimal inhibitory concentration (MIC) in assay [13] was 20 µM (≈ 32 µg/mL); in assay [14], 20 µM (≈ 32 µg/mL); in assay [15], 5 µM (≈ 8 µg/mL); in assay [16], 20 µM (≈ 32 µg/mL); in assay [17], 10 µM (≈ 16 µg/mL).

Turning to `CC[C@H](C)[C@H](NC(=O)[C@H](CCCCN)NC(=O)[C@H](Cc1c[nH]c2ccccc12)NC(=O)[C@@H](N)CCCN=C(N)N)C(=O)N[C@@H](Cc1ccccc1)C(=O)N[C@@H](CCCCN)C(=O)N[C@@H](CCCCN)C(=O)N[C@@H](C)C(=O)N[C@@H](C)C(=O)N[C@@H](CCCCN)C(=O)N[C@@H](CCCCN)C(=O)N[C@@H](C)C(N)=O` [RWKIFKKAAKKA], the MIC in [20] is 16 µM (≈ 23.6 µg/mL); in [21], ≥ 32 µM; in [22] it was 16 µM (≈ 23.6 µg/mL); in assay [23], ≥ 32 µM; in assay [24], 8 µM (≈ 11.8 µg/mL); in assay [25], ≥ 32 µM. The MIC in assay [26] was 8 µM (≈ 11.8 µg/mL); in assay [27] it was 16 µM (≈ 23.6 µg/mL); in assay [28], ≥ 32 µM; in assay [29], ≥ 32 µM; in assay [30], 8 µM (≈ 11.8 µg/mL); in [31], ≥ 32 µM.

For the molecule `CC(C)[C@H](NC(=O)[C@H](Cc1c[nH]c2ccccc12)NC(=O)[C@H](CCCCN)NC(=O)[C@H](CCCCN)NC(=O)[C@@H](NC(=O)[C@H](Cc1c[nH]c2ccccc12)NC(=O)[C@H](CCCCN)NC(=O)[C@H](CCCCN)NC(=O)[C@@H](NC(=O)[C@H](Cc1c[nH]c2ccccc12)NC(=O)[C@@H](N)CCCCN)C(C)C)C(C)C)C(=O)N[C@@H](CCCCN)C(N)=O` [KWVKKWVKKWVK], the minimal inhibitory concentration (MIC) in assay [33] came to 1 µM (≈ 1.64 µg/mL); in assay [34], 4 µM (≈ 6.57 µg/mL); in [35], 4 µM (≈ 6.57 µg/mL); in assay [28], 2 µM (≈ 3.28 µg/mL); in assay [36], 16 µM (≈ 26.3 µg/mL); in [31], 4 µM (≈ 6.57 µg/mL).

As for `NC(=O)[C@H](CCCN=C(N)N)NC(=O)[C@H](CCCN=C(N)N)NC(=O)[C@H](Cc1c[nH]c2ccccc12)NC(=O)[C@H](CCCN=C(N)N)NC(=O)[C@H](Cc1c[nH]c2ccccc12)NC(=O)[C@H](Cc1c[nH]c2ccccc12)NC(=O)[C@@H](N)CCCN=C(N)N` [RWWRWRR], the MIC in [32] was ≥ 208 µM.

The values are drawn from DBAASP.
